Assay results from ChEMBL document CHEMBL5500384, “New synergistic benzoquinone scaffolds as inhibitors of mycobacterial cytochrome bc1 complex to treat multi-drug resistant tuberculosis” (Eur J Med Chem, 2024).
Calls of active or inactive are those of the source. The rule behind the calls is not given here.

Tests used:
[1] = Renal toxicity in Albino mouse assessed as change in distal convoluted tubules at 50 to 2000 mg/kg, po measured after 14 days; assay type: organism-based; details: in vivo, 336 h, dose 50-2000 mg/kg, time 14 day
[2] = Acute toxicity in Albino mouse assessed as change in LDH level at 50 to 2000 mg/kg, po measured after 14 days (reference value: 1052 IU/L); assay type: organism-based; details: in vivo, 336 h, dose 50-2000 mg/kg, time 14 day
[3] = Renal toxicity in Albino mouse assessed as structural absorbability abnormalities at 50 to 2000 mg/kg, po measured after 14 days; assay type: organism-based; details: in vivo, 336 h, dose 50-2000 mg/kg, time 14 day
[4] = Renal toxicity in Albino mouse assessed as change in renal corpuscles at 50 to 2000 mg/kg, po measured after 14 days; assay type: organism-based; details: in vivo, 336 h, dose 50-2000 mg/kg, time 14 day
[5] = test system: Mycolicibacterium smegmatis; assay: Antibacterial activity against Mycobacterium smegmatis ATCC 14468 assessed as reduction in bacterial growth at 3 ug/ml measured every 6 hrs by spectrometry analysis; assay type: functional, organism-based; details: dose 3.0 µg/ml
[6] = Cytotoxicity against african green monkey Vero cells assessed as cell viability at 25 ug/ml by MTT assay; assay type: toxicity, cell-based; details: chlorocebus sabaeus, at 25 µg/mL, read-out: Activity
[7] = Hepatotoxicity in Albino mouse assessed as change in portal tracks at 50 to 2000 mg/kg, po measured after 14 days; assay type: toxicity, organism-based; details: in vivo, 336 h, dose 50-2000 mg/kg, time 14 day
[8] = Acute toxicity in Albino mouse assessed as change in SGPT count at 50 to 2000 mg/kg, po measured after 14 days (reference value: 52 IU/L); assay type: organism-based; details: in vivo, 336 h, dose 50-2000 mg/kg, time 14 day
[9] = test system: Mycolicibacterium smegmatis; assay: Antibacterial activity against Mycobacterium smegmatis ATCC 14468 assessed as log2 fold change in (22S)-22-hydroxycampest-4-en-3-one metabolite level by mass spectrometry analysis; assay type: functional
[10] = Acute toxicity in Albino mouse assessed as change in monocytes at 50 to 2000 mg/kg, po measured after 14 days (reference value: 1%); assay type: organism-based; details: in vivo, 336 h, dose 50-2000 mg/kg, time 14 day
[11] = Renal toxicity in Albino mouse assessed as change in proximal convoluted tubules at 50 to 2000 mg/kg, po measured after 14 days; assay type: organism-based; details: in vivo, 336 h, dose 50-2000 mg/kg, time 14 day
[12] = test system: Mycolicibacterium smegmatis; assay: Antibacterial activity against Mycobacterium smegmatis ATCC 14468 assessed as log2 fold change in beta-alanine metabolite level by mass spectrometry analysis; assay type: functional
[13] = test system: Mycolicibacterium smegmatis; assay: Antibacterial activity against Mycobacterium smegmatis ATCC 14468 assessed as log2 fold change in l-Glutathione oxidized metabolite level by mass spectrometry analysis; assay type: functional
[14] = test system: Mycolicibacterium smegmatis; assay: Antibacterial activity against Mycobacterium smegmatis ATCC 14468 assessed as log2 fold change in TnpC protein expression at 3 ug/ml incubated for 12 hrs by mass spectrometric analysis; assay type: functional; details: dose 3 µg/ml
[15] = test system: Mycolicibacterium smegmatis; assay: Antibacterial activity against Mycobacterium smegmatis ATCC 14468 assessed as log2 fold change in cytochrome P450 107B1 expression at 3 ug/ml incubated for 12 hrs by mass spectrometric analysis; assay type: functional; details: dose 3 µg/ml
[16] = Cytotoxicity against african green monkey Vero cells assessed as cell viability at 50 ug/ml by MTT assay; assay type: toxicity, cell-based; details: chlorocebus sabaeus, at 50 µg/mL, read-out: Activity
[17] = Cytotoxicity against african green monkey Vero cells assessed as cell viability at 6.25 ug/ml by MTT assay; assay type: toxicity, cell-based; details: chlorocebus sabaeus, at 6.25 µg/mL, read-out: Activity
[18] = Acute toxicity in Albino mouse assessed as change in lymphocytes at 50 to 2000 mg/kg, po measured after 14 days (reference value: 21%); assay type: organism-based; details: in vivo, 336 h, dose 50-2000 mg/kg, time 14 day
[19] = Pulmonary toxicity in Albino mouse assessed as appearance of goblet cells at 50 to 2000 mg/kg, po measured after 14 days; assay type: organism-based; details: in vivo, 336 h, dose 50-2000 mg/kg, time 14 day
[20] = Pulmonary toxicity in Albino mouse assessed as appearance of cilia at 50 to 2000 mg/kg, po measured after 14 days; assay type: organism-based; details: in vivo, 336 h, dose 50-2000 mg/kg, time 14 day
[21] = test system: Mycolicibacterium smegmatis; assay: Antibacterial activity against Mycobacterium smegmatis ATCC 14468 assessed as log2 fold change in NADH-quinone oxidoreductase subunit C expression at 3 ug/ml incubated for 12 hrs by mass spectrometric analysis; assay type: functional; details: dose 3 µg/ml
[22] = test system: Mycolicibacterium smegmatis; assay: Antibacterial activity against Mycobacterium smegmatis ATCC 14468 assessed as log2 fold change in shikimate transporter expression at 3 ug/ml incubated for 12 hrs by mass spectrometric analysis; assay type: functional; details: dose 3 µg/ml
[23] = test system: Mycolicibacterium smegmatis; assay: Antibacterial activity against Mycobacterium smegmatis ATCC 14468 assessed as log2 fold change in N-Acetyl-l-glutamic acid metabolite level by mass spectrometry analysis; assay type: functional
[24] = test system: Mycolicibacterium smegmatis; assay: Antibacterial activity against Mycobacterium smegmatis ATCC 14468 assessed as log2 fold change in membrane transport protein expression at 3 ug/ml incubated for 12 hrs by mass spectrometric analysis; assay type: functional; details: dose 3 µg/ml
[25] = Acute toxicity in Albino mouse assessed as change in ESR at 50 to 2000 mg/kg, po measured after 14 days (reference value: 10 millimeter); assay type: organism-based; details: in vivo, 336 h, dose 50-2000 mg/kg, time 14 day
[26] = test system: Mycolicibacterium smegmatis; assay: Antibacterial activity against Mycobacterium smegmatis ATCC 14468 assessed as log2 fold change in l-tyrosine metabolite level by mass spectrometry analysis; assay type: functional
[27] = test system: Mycolicibacterium smegmatis; assay: Antibacterial activity against Mycobacterium smegmatis ATCC 14468 assessed as reduction in bacterial growth at 12 ug/ml incubated for 48 hrs by spectrometry analysis; assay type: functional; set-up: scale not given: the % may be the effect or the level left; details: dose 12 µg/ml
[28] = Pulmonary toxicity in Albino mouse assessed as change in alveolar sacs at 50 to 2000 mg/kg, po measured after 14 days; assay type: organism-based; details: in vivo, 336 h, dose 50-2000 mg/kg, time 14 day
[29] = Acute toxicity in Albino mouse assessed as change in ALP level at 50 to 2000 mg/kg, po measured after 14 days (reference value: 28 IU/L); assay type: organism-based; details: in vivo, 336 h, dose 50-2000 mg/kg, time 14 day
[30] = test system: Mycolicibacterium smegmatis; assay: Antibacterial activity against Mycobacterium smegmatis ATCC 14468 assessed as log2 fold change in cytochrome bc1 complex Rieske-iron-sulfur subunit expression at 3 ug/ml incubated for 12 hrs by mass spectrometric analysis; assay type: functional; details: dose 3 µg/ml
[31] = test system: Mycolicibacterium smegmatis; assay: Antibacterial activity against Mycobacterium smegmatis ATCC 14468 assessed as log2 fold change in methylase expression at 3 ug/ml incubated for 12 hrs by mass spectrometric analysis; assay type: functional; details: dose 3 µg/ml
[32] = test system: Mycolicibacterium smegmatis; assay: Antibacterial activity against Mycobacterium smegmatis ATCC 14468 assessed as log2 fold change in dihydroorotate dehydrogenase expression at 3 ug/ml incubated for 12 hrs by mass spectrometric analysis; assay type: functional; details: dose 3 µg/ml
[33] = test system: Mycolicibacterium smegmatis; assay: Antibacterial activity against Mycobacterium smegmatis ATCC 14468 assessed as log2 fold change in l-Glutamic acid metabolite level by mass spectrometry analysis; assay type: functional
[34] = test system: Mycolicibacterium smegmatis; assay: Antibacterial activity against Mycobacterium smegmatis ATCC 14468 assessed as log2 fold change in DppB expression at 3 ug/ml incubated for 12 hrs by mass spectrometric analysis; assay type: functional; details: dose 3 µg/ml
[35] = test system: Mycolicibacterium smegmatis; assay: Antibacterial activity against Mycobacterium smegmatis ATCC 14468 assessed as log2 fold change in GluD expression at 3 ug/ml incubated for 12 hrs by mass spectrometric analysis; assay type: functional; details: dose 3 µg/ml
[36] = test system: Mycolicibacterium smegmatis; assay: Antibacterial activity against Mycobacterium smegmatis ATCC 14468 assessed as log2 fold change in histidine kinase expression at 3 ug/ml incubated for 12 hrs by mass spectrometric analysis; assay type: functional; details: dose 3 µg/ml
[37] = Acute toxicity in Albino mouse assessed as change in hemoglobin level at 50 to 2000 mg/kg, po measured after 14 days (reference value: 12.8 g/dl); assay type: organism-based; details: in vivo, 336 h, dose 50-2000 mg/kg, time 14 day
[38] = test system: Mycolicibacterium smegmatis; assay: Antibacterial activity against Mycobacterium smegmatis ATCC 14468 assessed as log2 fold change in DL-gamma-Amino-beta-hydroxybutyric acid metabolite level by mass spectrometry analysis; assay type: functional

| Structure (SMILES) | Activity [1] | Activity [2] [IU/L] | Activity [3] | Activity [4] | Activity [5] | viability at 25 ug/ml [6] [%] | Activity [7] | Activity [8] [IU/L] | log2FC [9] | Activity [10] [%] | Activity [11] | log2FC [12] | log2FC [13] | log2FC [14] | log2FC [15] | viability at 50 ug/ml [16] [%] | viability at 6.25 ug/ml [17] [%] | Activity [18] [%] | Activity [19] | Activity [20] | other results |
| --- | --- | --- | --- | --- | --- | --- | --- | --- | --- | --- | --- | --- | --- | --- | --- | --- | --- | --- | --- | --- | --- |
| COc1ccc(C2C(Cl)C(=O)N2C2=C(Cl)C(=O)c3ccccc3C2=O)cc1 (centres undefined) | Non-Toxic | 842 | Non-Toxic | Non-Toxic | inactive | 37.6 | Non-Toxic | 64 | 2.67 | 1 | Non-Toxic | -2.47 | -1.04 | -6.64 | 6.64 | 8.7 | 100 | 32 | Non-Toxic | Non-Toxic | log2FC [21]: -1.9; log2FC [22]: -6.64; log2FC [23]: -1.34; log2FC [24]: -6.64; Activity [25]: 15 millimeter/hr; log2FC [26]: -1.68; Activity [27]: 80%; Activity [28]: Non-Toxic; Activity [29]: 44 IU/L; log2FC [30]: 1.4; log2FC [31]: -6.64; log2FC [32]: -1.89; log2FC [33]: -1.49; log2FC [34]: -6.64; log2FC [35]: -1.11; log2FC [36]: -6.64; Activity [37]: 13.9 g/dL; log2FC [38]: -2.72 |
| O=C1C(Cl)=C(Cl)C(=O)c2ccccc21 [Dichlon] | Non-Toxic | 1030 | Non-Toxic | Non-Toxic | inactive | 67.1 | Non-Toxic | 17 | -2.01 | 1 | Non-Toxic | -1 | -2.01 | -2.19 | 6.64 | 36.1 | 100 | 53 | Non-Toxic | Non-Toxic | log2FC [21]: -2.08; log2FC [22]: -6.64; log2FC [23]: -0.61; log2FC [24]: -1.79; Activity [25]: 20 millimeter/hr; log2FC [26]: -1.18; Activity [27]: 80%; Activity [28]: Non-Toxic; Activity [29]: 33 IU/L; log2FC [30]: 6.64; log2FC [31]: -1.53; log2FC [32]: -1.92; log2FC [33]: -1.59; log2FC [34]: -6.64; log2FC [35]: -3.7; log2FC [36]: -6.64; Activity [37]: 14.3 g/dL; log2FC [38]: -2.75 |
| CN(C)c1ccc(C2C(Cl)C(=O)N2C2=C(Cl)C(=O)c3ccccc3C2=O)cc1 (centres undefined) | Non-Toxic | 756 | Non-Toxic | Non-Toxic | inactive | 40.9 | Non-Toxic | 73 | 3.41 | 1 | Non-Toxic | -1.29 | -1.8 | -6.64 | 6.64 | 25.4 | 100 | 34 | Non-Toxic | Non-Toxic | log2FC [21]: -1.41; log2FC [22]: -6.64; log2FC [23]: -1.04; log2FC [24]: -6.64; Activity [25]: 16 millimeter/hr; log2FC [26]: -1.13; Activity [27]: 80%; Activity [28]: Non-Toxic; Activity [29]: 52 IU/L; log2FC [30]: 1.61; log2FC [31]: -1.9; log2FC [32]: -1.47; log2FC [33]: -0.85; log2FC [34]: -6.64; log2FC [35]: -1.78; log2FC [36]: -6.64; Activity [37]: 14.3 g/dL; log2FC [38]: -1.1 |
